According to patent publication US5716958A, “Amino acid derivative having anti-CCK activity” (Tobishi Pharmaceutical Co., Ltd., priority 1994, dated 1998):
Read-outs that look alike come from different tables or passages of the source.

Experiments:
[1] = biological target: T1, CCK-A (Rattus norvegicus, UniProt P30551); assay: Peripheral receptor (CCK-A) binding experiment, [^3 H]-CCK-8 binding inhibition; conditions: for CCK-B/CCK-A: ratio of IC50 values CCK-B/CCK-A (selectivity for CCK-A), 60 min
T1 construct: CCK-A receptors prepared from the cell membranes of rat pancreas; from tissue; host or cells: rat pancreas membranes (male rats, Japan Laboratory Animals)
T1 sequence (P30551 1-444): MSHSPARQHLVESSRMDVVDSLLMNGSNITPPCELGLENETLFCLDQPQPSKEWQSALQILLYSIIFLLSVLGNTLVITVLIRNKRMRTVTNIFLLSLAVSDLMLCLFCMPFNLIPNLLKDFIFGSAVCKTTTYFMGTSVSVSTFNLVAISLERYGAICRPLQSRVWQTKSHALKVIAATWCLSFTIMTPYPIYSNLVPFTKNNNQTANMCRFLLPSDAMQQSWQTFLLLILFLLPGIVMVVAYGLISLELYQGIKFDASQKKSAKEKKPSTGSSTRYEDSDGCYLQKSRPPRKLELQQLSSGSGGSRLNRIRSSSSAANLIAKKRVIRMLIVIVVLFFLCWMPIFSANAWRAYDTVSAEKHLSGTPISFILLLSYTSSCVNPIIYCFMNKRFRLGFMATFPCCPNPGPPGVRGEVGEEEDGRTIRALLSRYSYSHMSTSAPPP
Description: (§1) Peripheral Receptor (CCK-A) and Central Receptor (CCK-B) Binding Experiment
(§2) The pancreas and cerebrum of male rats (Japan Laboratory Animals), which were sacrificed by decapitation and having body weights of 250-300 g, were extracted and immersed in cold Hepes buffer. After suspending these tissues using a Potter homogenizer, the suspension was centrifuged for 10 minutes at 48,000×g. The resulting residue was again suspended by addition of cold Hepes buffer and centrifuged for 10 minutes at 48,000×g. The resulting residue was transferred to cold incubation buffer.
(§3) A 1 ml aliquot of the homogenate was incubated for 60 minutes at 25° C. in the presence of 0.2 nM [^3 H]-CCK-8 and the test compound, in the presence of vehicle only (for measurement of 100% binding), or in the presence of 1 μM cold CCK-8 (for measurement of non-specific binding). Next, the reaction solution was promptly suction filtered using a Whatman glass GF/B filter immersed in Hepes buffer followed by washing the filter with cold Hepes buffer. Next, the glass filter was placed in Aquasol-2 followed by assay of radioactivity with a liquid scintillation counter.
(§4) The compound numbers shown in Table 3 indicate the target compounds according to the number of the embodiment.

[2] = tested on: extracted guinea pig ileum; assay: Anti-CCK action in extracted guinea pig ileum (inhibition of CCK-8-induced contraction, Magnus tube); set-up: species or system guinea pig (Hartley strain, male); conditions: Cavia porcellus
Description: Anti-cholecystokinin (CCK) Action in Extracted Guinea Pig Ileum After sacrificing a male guinea pig (Hartley strain) by striking and exsanguination, a piece of extracted ileum was suspended from a Magnus tube, while applying tension of 0.5 g, containing 30 ml of Tyrode's solution (NaCl 136.9 mM, KCl 2.68 mM, CaCl2 1.8 mM, MgCl2 1.05 mM, NaH2 PO4 0.42 mM, NaHCO3 11.9 mM and glucose 5.55 mM) and ventilated with mixed O2 gas containing 5% CO2 at 37° C. Changes in contraction were recorded on smoked paper for isotonicity via a bevel. The piece of ileum was allowed to stand undisturbed for 30 minutes and then contracted by addition 1×10^-8 M CCK-8. After washing, this was repeated several times. After the contraction by CCK-8 had stabilized, the test compound was added. Contraction resulting from addition of 1×10^-8 M CCK was then measured 5 minutes later. The contraction caused by CCK-8 and the contraction caused by CCK-8 in the presence of the test compound at varying concentrations were compared, and the resulting IC50 values (concentration of test substance at which contraction caused by CCK-8 is inhibited by 50%) are shown in Table 2. The compound numbers shown in Table 2 indicate the target compounds according to the numbers of the embodiments.

[3] = biological target: T2, CCK-B (Rattus norvegicus, UniProt P30553); assay: Central receptor (CCK-B) binding experiment, [^3 H]-CCK-8 binding inhibition; conditions: rat cerebrum homogenate, 0.2 nM [^3 H]-CCK-8, 60 minutes at 25° C
T2 construct: CCK-B receptors originating in the cell membrane of rat brain cells; from tissue; host or cells: rat cerebrum membranes (male rats, Japan Laboratory Animals)
T2 sequence (P30553 1-452): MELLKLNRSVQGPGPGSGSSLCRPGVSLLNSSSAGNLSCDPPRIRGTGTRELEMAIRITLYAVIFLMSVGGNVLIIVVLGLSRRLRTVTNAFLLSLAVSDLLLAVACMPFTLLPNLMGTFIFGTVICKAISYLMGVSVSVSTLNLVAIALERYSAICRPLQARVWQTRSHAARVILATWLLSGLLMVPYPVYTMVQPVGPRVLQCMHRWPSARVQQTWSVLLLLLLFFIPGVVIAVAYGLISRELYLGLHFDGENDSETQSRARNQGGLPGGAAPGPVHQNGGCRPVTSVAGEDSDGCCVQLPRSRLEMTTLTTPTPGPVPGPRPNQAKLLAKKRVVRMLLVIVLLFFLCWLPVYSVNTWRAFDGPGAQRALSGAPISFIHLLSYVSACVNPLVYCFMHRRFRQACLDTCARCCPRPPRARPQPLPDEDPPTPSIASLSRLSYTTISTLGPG
Description: as §1, §2, §3, §4

[4] = rat pancreas homogenate, 0.2 nM [^3 H]-CCK-8, 60 minutes at 25° C, read-out: CCK-A IC50
[5] = contraction by 1×10^-8 M CCK-8, test compound added 5 minutes before, extracted ileum, 37° C, read-out: Active IC50
[6] = rat pancreas cell membranes, read-out: activity in binding experiment on CCK-A receptors prepared from the cell membranes of rat pancreas

Row | IC50 [1, 4] [nM] | CCK-B/CCK-A [1] | IC50 [3] [nM] | IC50 [1, 6] [nM] | SMILES | IC50 ([2]; extracted guinea pig ileum, read-out: IC50 with respect to the extracted guinea pig ileum (in vitro)) [nM] | IC50 [2, 5] [nM]
1 | 560 | 23 | 13000 | – | O=C(N[C@@H](CSc1nccnc1C(=O)O)C(=O)N1CCN(C(c2ccccc2)c2ccccc2)CC1)c1cc2ccccc2[nH]1 [Compound 17-3, (R)-1-[3-(3-carboxypyrazin-2-yl)thio-2-(indol-2-yl)carbonylamino)propionyl-4-diphenylmethylpiperazine] | 7.2 | 7.2
2 | 20 | 2800 | 56000 | – | O=C(N[C@@H](CSc1ncccc1P(=O)(O)O)C(=O)N1CCN(C(c2ccccc2)c2ccccc2)CC1)c1cc2ccccc2[nH]1 [Compound 22-4, (R)-4-diphenylmethyl-1-[3-(3-phosphonopyridin-2-yl)thio-2-(indol-2-yl)carbonylamino]propionylpiperazine] | – | 36
3 | 6 | 6000 | 36000 | 6 | O=C(N[C@@H](CSc1ncccc1C(=O)O)C(=O)N1CCN(C(c2ccc(F)cc2)c2ccc(F)cc2)CC1)c1cc2ccccc2[nH]1 [Compound 10-4, (R)-4-bis(4-fluorophenyl)methyl-1-[3-(3-carboxypyridin-2-yl)thio-2-(indol-2-yl)carbonylamino]propionylpiperazine] | – | 48
4 | 30 | 293 | 8800 | – | CC(C)C(C(C)C)N1CCN(C(=O)[C@H](CSc2ncccc2C(=O)O)NC(=O)c2cc3ccccc3[nH]2)CC1 [Compound 15-4, (R)-1-[3-(3-carboxypyridin-2-yl)thio-2-(indol-2-yl)carbonylamino]propionyl-4-diisopropylmethylpiperazine] | – | 120
5 | 43 | 419 | 18000 | – | COc1ccc2[nH]c(C(=O)N[C@@H](CSc3ncccc3C(=O)O)C(=O)N3CCN(C(c4ccccc4)c4ccccc4)CC3)cc2c1 [Compound 6-2, (R)-1-[3-(3-carboxypyridin-2-yl)thio-2-(5-methoxyindol-2-yl)carbonylamino]propionyl-4-diphenylmethylpiperazine] | – | 52
6 | 37 | 1865 | 69000 | – | O=C(N[C@@H](CCn1nncc1C(=O)O)C(=O)N1CCN(C(c2ccccc2)c2ccccc2)CC1)c1cc2ccccc2[nH]1 [Compound 24-3, (S)-1-[4-(5-carboxy-1,2,3-triazol-1-yl)-2-(indol-2-yl)carbonylamino]butyryl-4-diphenylmethylpiperazine] | – | 120
7 | 5.1 | 2745 | 14000 | 5.1 | O=C(N[C@@H](CSc1ncccc1C(=O)O)C(=O)N1CCN(C(c2ccccc2)c2ccccc2)CC1)c1cc2ccccc2[nH]1 [Compound 1-6, (R)-1-[3-(3-carboxypyridin-2-yl)thio-2-(indol-2-yl)carbonylamino]propionyl-4-diphenylmethylpiperazine] | – | 13
8 | 50 | 1140 | 57000 | – | O=C(N[C@@H](CSc1ncccc1C(=O)O)C(=O)N1CCN(C(c2ccccn2)c2ccccn2)CC1)c1cc2ccccc2[nH]1 [Compound 8-5, (R)-4-bis(2-pyridyl)methyl-1-[3-(3-carboxypyridin-2-yl)thio-2-(indol-2-yl)carbonylamino]propionylpiperazine] | – | 350

Row | SMILES | IC50 [1, 4] [nM] | CCK-B/CCK-A [1] | IC50 [3] [nM] | IC50 [1, 6] [nM] | IC50 ([2]; extracted guinea pig ileum, read-out: IC50 with respect to the extracted guinea pig ileum (in vitro)) [nM] | IC50 [2, 5] [nM]
9 | CCCCCN(CCCOC)C(=O)C(CCC(=O)O)NC(=O)c1ccc(Cl)c(Cl)c1 (stereo not drawn) [CR1505, Loxiglumide, reference compound] | 1500 | 16 | 24000 | – | – | 3300
